Results from patent US20210045385A1, “PYRIDAZINONE-SUBSTITUTED KETOXIMES AS HERBICIDES” (FMC Corporation, priority 2018, published 2021).

Experiments:
Type in all cases: in vivo
[1] = tested on: Italian ryegrass (Lolium multiflorum); assay: Test A preemergence, visual plant response rating; conditions: for Ryegrass, Italian plant response rating: 125 g ai/ha, preemergence, 0 to 100 scale, 0 no effect, 100 complete control; for Ryegrass, Italian plant response rating (0 to 100 scale): 500 g ai/ha Preemergence, approx. 10 days
Procedure, shortened: (§1)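 Preemergence: seeds in loam/sand blend given directed soil spray of compound in non-phytotoxic solvent with surfactant. Postemergence: plants 2–10 cm, one- to two-leaf stage, sprayed with same formulation. Visual injury rated vs untreated controls after ~10 days in greenhouse, 0 (no effect) to 100 (complete control).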

[2] = tested on: barnyardgrass (Echinochloa crus-galli); assay: Test A preemergence, visual plant response rating; conditions: for Barnyardgrass plant response rating: 125 g ai/ha, preemergence, 0 to 100 scale, 0 no effect, 100 complete control; for Barnyardgrass plant response rating (0 to 100 scale): 500 g ai/ha Preemergence, approx. 10 days
Procedure, shortened: as §1

[3] = tested on: foxtail, giant (giant foxtail, Setaria faberii); assay: Test A preemergence, visual plant response rating; conditions: for Foxtail, Giant plant response rating: 125 g ai/ha, preemergence, 0 to 100 scale, 0 no effect, 100 complete control; for Foxtail, Giant plant response rating (0 to 100 scale): 500 g ai/ha Preemergence, approx. 10 days
Procedure, shortened: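 Ratings use a 0–100 visual scale (100 = complete control) against untreated controls, scored about 10 days after greenhouse treatment. Test chemicals were formulated in surfactant-containing non-phytotoxic solvent and applied either as soil spray after planting (preemergence) or onto one- to two-leaf, 2–10 cm plants (postemergence).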

[4] = tested on: kochia (Kochia scoparia); assay: Test A preemergence, visual plant response rating; conditions: for Kochia plant response rating: 125 g ai/ha, preemergence, 0 to 100 scale, 0 no effect, 100 complete control; for Kochia plant response rating (0 to 100 scale): 500 g ai/ha Preemergence, approx. 10 days
Procedure, shortened: as §1

[5] = tested on: pigweed (Amaranthus retroflexus); assay: Test A preemergence, visual plant response rating; conditions: for Pigweed plant response rating: 125 g ai/ha, preemergence, 0 to 100 scale, 0 no effect, 100 complete control; for Pigweed plant response rating (0 to 100 scale): 500 g ai/ha Preemergence, approx. 10 days
Procedure, shortened: as §1

[6] = tested on: ragweed (common ragweed, Ambrosia elatior); assay: Test A preemergence, visual plant response rating; conditions: for Ragweed plant response rating: 125 g ai/ha, preemergence, 0 to 100 scale, 0 no effect, 100 complete control; for Ragweed plant response rating (0 to 100 scale): 500 g ai/ha Preemergence, approx. 10 days
Procedure, shortened: as §1

[7] = tested on: Italian ryegrass (Lolium multiflorum); assay: Test A postemergence, visual plant response rating; conditions: for Ryegrass, Italian plant response rating (0 to 100 scale): 500 g ai/ha, postemergence, 0 is no effect, 100 is complete control; for Ryegrass, Italian plant response rating: Postemergence, 125 g ai/ha, 0 to 100 scale (0 no effect, 100 complete control)
Procedure, shortened: as §1

[8] = tested on: barnyardgrass (Echinochloa crus-galli); assay: Test A postemergence, visual plant response rating; conditions: for Barnyardgrass plant response rating (0 to 100 scale): 500 g ai/ha, postemergence, 0 is no effect, 100 is complete control; for Barnyardgrass plant response rating: Postemergence, 125 g ai/ha, 0 to 100 scale (0 no effect, 100 complete control)
Procedure, shortened: as §1

[9] = tested on: blackgrass (Alopecurus myosuroides); assay: Test A postemergence, visual plant response rating; conditions: for Blackgrass plant response rating (0 to 100 scale): 500 g ai/ha, postemergence, 0 is no effect, 100 is complete control; for Blackgrass plant response rating: Postemergence, 125 g ai/ha, 0 to 100 scale (0 no effect, 100 complete control)
Procedure, shortened: as §1

[10] = tested on: corn (Zea mays); assay: Test A postemergence, visual plant response rating; conditions: for Corn plant response rating (0 to 100 scale): 500 g ai/ha, postemergence, 0 is no effect, 100 is complete control; for Corn plant response rating: Postemergence, 125 g ai/ha, 0 to 100 scale (0 no effect, 100 complete control)
Procedure, shortened: as §1

[11] = tested on: foxtail, giant (giant foxtail, Setaria faberii); assay: Test A postemergence, visual plant response rating; conditions: for Foxtail, Giant plant response rating (0 to 100 scale): 500 g ai/ha, postemergence, 0 is no effect, 100 is complete control; for Foxtail, Giant plant response rating: Postemergence, 125 g ai/ha, 0 to 100 scale (0 no effect, 100 complete control)
Procedure, shortened: as §1

[12] = tested on: galium (catchweed bedstraw, Galium aparine); assay: Test A postemergence, visual plant response rating; conditions: for Galium plant response rating (0 to 100 scale): 500 g ai/ha, postemergence, 0 is no effect, 100 is complete control; for Galium plant response rating: Postemergence, 125 g ai/ha, 0 to 100 scale (0 no effect, 100 complete control)
Procedure, shortened: as §1

[13] = tested on: kochia (Kochia scoparia); assay: Test A postemergence, visual plant response rating; conditions: for Kochia plant response rating (0 to 100 scale): 500 g ai/ha, postemergence, 0 is no effect, 100 is complete control; for Kochia plant response rating: Postemergence, 125 g ai/ha, 0 to 100 scale (0 no effect, 100 complete control)
Procedure, shortened: as §1

[14] = tested on: pigweed (Amaranthus retroflexus); assay: Test A postemergence, visual plant response rating; conditions: for Pigweed plant response rating (0 to 100 scale): 500 g ai/ha, postemergence, 0 is no effect, 100 is complete control; for Pigweed plant response rating: Postemergence, 125 g ai/ha, 0 to 100 scale (0 no effect, 100 complete control)
Procedure, shortened: as §1

[15] = tested on: ragweed (common ragweed, Ambrosia elatior); assay: Test A postemergence, visual plant response rating; conditions: for Ragweed plant response rating (0 to 100 scale): 500 g ai/ha, postemergence, 0 is no effect, 100 is complete control; for Ragweed plant response rating: Postemergence, 125 g ai/ha, 0 to 100 scale (0 no effect, 100 complete control)
Procedure, shortened: as §1

[16] = tested on: wheat (Triticum aestivum); assay: Test A postemergence, visual plant response rating; conditions: for Wheat plant response rating (0 to 100 scale): 500 g ai/ha, postemergence, 0 is no effect, 100 is complete control; for Wheat plant response rating: Postemergence, 125 g ai/ha, 0 to 100 scale (0 no effect, 100 complete control)
Procedure, shortened: as §1

[17] = tested on: barnyardgrass (Echinochloa crus-galli); assay: Test B flooded paddy test, visual plant response rating; conditions: 250 g ai/ha, Flood, applied to paddy water, 2-leaf stage, evaluated after 13 to 15 days
Procedure, shortened: (§2)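 2-leaf plants; pots flooded 3 cm over soil surface; compound dosed straight into the floodwater; depth kept constant; greenhouse 13–15 d; visual rating vs. untreated controls.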

[18] = tested on: ducksalad (Heteranhera limosa); assay: as above; conditions: 250 g ai/ha, Flood, applied to paddy water, 2-leaf stage, evaluated after 13 to 15 days
Procedure, shortened: as §2

[19] = tested on: rice (Oryza sativa); assay: as above; conditions: 250 g ai/ha, Flood, applied to paddy water, 2-leaf stage, evaluated after 13 to 15 days
Procedure, shortened: as §2

[20] = tested on: sedge, umbrella (small-flower umbrella sedge, Cyperus difformis); assay: as above; conditions: 250 g ai/ha, Flood, applied to paddy water, 2-leaf stage, evaluated after 13 to 15 days
Procedure, shortened: as §2

Compound: CON=C(c1cc(C)cs1)c1c(O)c(C)nn(C)c1=O (mixture of isomers) [Compound 133]
- Ryegrass, Italian plant response rating [1]: 0
- Ryegrass, Italian plant response rating (0 to 100 scale) [1]: 0
- Barnyardgrass plant response rating [2]: 0
- Barnyardgrass plant response rating (0 to 100 scale) [2]: 0
- Foxtail, Giant plant response rating [3]: 0
- Foxtail, Giant plant response rating (0 to 100 scale) [3]: 0
- Kochia plant response rating [4]: 0
- Kochia plant response rating (0 to 100 scale) [4]: 20
- Pigweed plant response rating [5]: 0
- Pigweed plant response rating (0 to 100 scale) [5]: 0
- Ragweed plant response rating [6]: 0
- Ragweed plant response rating (0 to 100 scale) [6]: 40
- Ryegrass, Italian plant response rating (0 to 100 scale) [7]: 0
- Ryegrass, Italian plant response rating [7]: 0
- Barnyardgrass plant response rating (0 to 100 scale) [8]: 0
- Barnyardgrass plant response rating [8]: 0
- Blackgrass plant response rating (0 to 100 scale) [9]: 0
- Blackgrass plant response rating [9]: 0
- Corn plant response rating (0 to 100 scale) [10]: 0
- Corn plant response rating [10]: 0
- Foxtail, Giant plant response rating (0 to 100 scale) [11]: 10
- Foxtail, Giant plant response rating [11]: 0
- Galium plant response rating (0 to 100 scale) [12]: 60
- Galium plant response rating [12]: 20
- Kochia plant response rating (0 to 100 scale) [13]: 60
- Kochia plant response rating [13]: 20
- Pigweed plant response rating (0 to 100 scale) [14]: 80
- Pigweed plant response rating [14]: 50
- Ragweed plant response rating (0 to 100 scale) [15]: 30
- Ragweed plant response rating [15]: 10
- Wheat plant response rating (0 to 100 scale) [16]: 0
- Wheat plant response rating [16]: 0
- Plant response rating, Barnyardgrass (0 to 100 scale, 0 is no effect, 100 is complete control) [17]: 0
- Plant response rating, Ducksalad (0 to 100 scale, 0 is no effect, 100 is complete control) [18]: 0
- Plant response rating, Rice (0 to 100 scale, 0 is no effect, 100 is complete control) [19]: 0
- Plant response rating, Sedge, Umbrella (0 to 100 scale, 0 is no effect, 100 is complete control) [20]: 0

Compound: CO/N=C(\c1ccc(F)cc1C)c1c(O)c(C)nn(C)c1=O [Compound 72]
- Ryegrass, Italian plant response rating [1]: 0
- Ryegrass, Italian plant response rating (0 to 100 scale) [1]: 40
- Barnyardgrass plant response rating [2]: 0
- Barnyardgrass plant response rating (0 to 100 scale) [2]: 0
- Foxtail, Giant plant response rating [3]: 0
- Foxtail, Giant plant response rating (0 to 100 scale) [3]: 10
- Kochia plant response rating [4]: 0
- Kochia plant response rating (0 to 100 scale) [4]: 0
- Pigweed plant response rating [5]: 0
- Pigweed plant response rating (0 to 100 scale) [5]: 20
- Ragweed plant response rating [6]: 0
- Ragweed plant response rating (0 to 100 scale) [6]: 20
- Ryegrass, Italian plant response rating (0 to 100 scale) [7]: 40
- Ryegrass, Italian plant response rating [7]: 0
- Barnyardgrass plant response rating (0 to 100 scale) [8]: 0
- Barnyardgrass plant response rating [8]: 0
- Blackgrass plant response rating (0 to 100 scale) [9]: 0
- Blackgrass plant response rating [9]: 20
- Corn plant response rating (0 to 100 scale) [10]: 20
- Corn plant response rating [10]: 0
- Foxtail, Giant plant response rating (0 to 100 scale) [11]: 10
- Foxtail, Giant plant response rating [11]: 0
- Galium plant response rating (0 to 100 scale) [12]: 70
- Galium plant response rating [12]: 70
- Kochia plant response rating (0 to 100 scale) [13]: 60
- Kochia plant response rating [13]: 20
- Pigweed plant response rating (0 to 100 scale) [14]: 80
- Pigweed plant response rating [14]: 30
- Ragweed plant response rating (0 to 100 scale) [15]: 70
- Ragweed plant response rating [15]: 40
- Wheat plant response rating (0 to 100 scale) [16]: 20
- Wheat plant response rating [16]: 0
- Plant response rating, Barnyardgrass (0 to 100 scale, 0 is no effect, 100 is complete control) [17]: 0
- Plant response rating, Ducksalad (0 to 100 scale, 0 is no effect, 100 is complete control) [18]: 0
- Plant response rating, Rice (0 to 100 scale, 0 is no effect, 100 is complete control) [19]: 0
- Plant response rating, Sedge, Umbrella (0 to 100 scale, 0 is no effect, 100 is complete control) [20]: 0
